Assay results: patent US11724997B2, “Compounds and compositions for treating conditions associated with APJ receptor activity” (Annapurna Bio, Inc., priority 2018, dated 2023)

What follows are compounds tested against T1, APJ Receptor (Homo sapiens, UniProt P35414) (assay: APJ cAMP assay: inhibition of forskolin-stimulated cAMP, enzyme fragment complementation, in CHO-K1 cells stably expressing the APJ Receptor). Details: CHO-K1 cell line (DiscoverX) stably expressing APJ Receptor; EC80 forskolin; 30 minutes at 37° C.; read-out: APJ cAMP EC50 Potency range.
T1 sequence (P35414 1-380): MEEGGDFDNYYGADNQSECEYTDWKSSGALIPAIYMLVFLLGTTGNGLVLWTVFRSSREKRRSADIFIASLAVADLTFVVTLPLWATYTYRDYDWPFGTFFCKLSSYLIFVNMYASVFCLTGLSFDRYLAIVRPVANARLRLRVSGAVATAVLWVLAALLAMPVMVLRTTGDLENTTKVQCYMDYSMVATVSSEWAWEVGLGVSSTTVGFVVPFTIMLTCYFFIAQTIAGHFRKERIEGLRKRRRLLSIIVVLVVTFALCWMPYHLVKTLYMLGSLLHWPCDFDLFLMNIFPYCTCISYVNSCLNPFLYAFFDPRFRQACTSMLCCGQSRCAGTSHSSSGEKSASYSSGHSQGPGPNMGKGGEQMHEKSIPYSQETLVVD
Type: cell-based
From the text: Activation of APJ receptor is known to inhibit forskolin-stimulated cyclic AMP (cAMP) production in cells in a pertussis toxin-sensitive manner which indicates primary coupling to the GαI subunit of the G protein heterotrimeric complex. In addition to signaling through G protein and inhibition of cAMP, APJ receptor activation also results in β-arrestin recruitment, receptor internalization and activation of extracellular-regulated kinases (ERKs).
In order to optimize functional activity directed toward Gi coupling we utilized a CHO-K1 cell line developed by DiscoverX stably expressing the APJ Receptor. Cells expressing APJR receptor were plated in a 384-well microtiter plates and incubated overnight at 37° C. with 5% CO2 to allow the cells to attach and grow. Media was then aspirated from the cells and replaced with 15 uL 2:1 Hanks Balanced Salt Solution (HBSS)/10 mM Hepes. cAMP XS+ Ab reagent. Five microliters (5 uL) of previously generated compound sample stocks at 4× final concentration in assay buffer containing 4×EC80 forskolin were then added to the cells and allowed to incubate at 37° C. for 30 minutes.
After incubation the assay signal was generated using a technology termed enzyme fragment complementation (EFC). In EFC the enzyme B-galactosidase is split into two complementary portions (EA and ED). The fragment ED is fused to cAMP and in the assay format competes with endogenous cAMP for binding to a cAMP specific antibody. Activated B-Gal is formed when exogenous EA fragment binds to free ED-cAMP (not bound to cAMP specific antibody). Activated enzyme levels are detected through conversion of B-gal chemiluminescent substrate which generates a detectable luminescence signal and read on standard microtiter plate.
The methodology for detection of cAMP using EFC requires incubation with 20 uL of cAMP XS+ ED/CL lysis cocktail for one hour followed by incubation with 20 uL cAMP XS+ EA reagent for three hours at room temperature. Microplates were read following signal generation with a PerkinElmer Envision instrument utilizing chemiluminescent signal detection.
Compound activity was analyzed using CBIS data analysis suite (ChemInnovation, CA).
Percentage activity was calculated using the following formula: % Activity=[…]×(1−(mean RLU of test sample−mean RLU of Max control)/(mean RLU of vehicle control−mean RLU of Max control))
The biological activity of the exemplified compounds of this invention determined by the assay described above is shown in Table 1. The APJ cAMP EC50 potency ranges are as follows: A: EC50<1 nM; B: 1≤EC50<100 nM; and C: 100≤EC50<10,000 nM.

EC50 [nM]	SMILES
< 1	COc1cccc(OC)c1-n1c(C(=O)NS(=O)(=O)Cc2ncn(C)n2)nnc1-c1ccc(C)o1 [Example 55, 4-(2,6-Dimethoxyphenyl)-N-(((1-methyl-1H-1,2,4-triazol-3-yl)methyl)sulfonyl)-5-(5-methylfuran-2-yl)-4H-1,2,4-triazole-3-carboxamide]
1 to 100	COc1cccc(OC)c1-n1c(C(=O)NS(=O)(=O)Cc2ccccc2)nnc1-c1ccc(C)o1 [Example 16, N-(benzylsulfonyl)-4-(2,6-dimethoxyphenyl)-5-(5-methylfuran-2-yl)-4H-1,2,4-triazole-3-carboxamide]
< 1	CCOc1cccc(-c2nnc(C(=O)NS(=O)(=O)CCc3ccncc3)n2-c2c(OC)cccc2OC)n1 [Example 49, 4-(2,6-Dimethoxyphenyl)-5-(6-ethoxypyridin-2-yl)-N-((2-(pyridin-4-yl)ethyl)sulfonyl)-4H-1,2,4-triazole-3-carboxamide]
< 1	CCOc1cccc(-c2nnc(C(=O)NS(=O)(=O)Cc3ncccn3)n2-c2c(OC)cccc2OC)n1 [Example 41, 4-(2,6-Dimethoxyphenyl)-5-(6-ethoxypyridin-2-yl)-N-((pyrimidin-2-ylmethyl)sulfonyl)-4H-1,2,4-triazole-3-carboxamide]
100 to 10000	COc1cccc(-c2nnc(C(=O)NS(=O)(=O)Cc3ccccc3)n2-c2c(Cl)cccc2Cl)n1 [Example 60, N-(benzylsulfonyl)-4-(2,6-dichlorophenyl)-5-(6-methoxypyridin-2-yl)-4H-1,2,4-triazole-3-carboxamide]
1 to 100	COc1cccc(-c2nnc(C(=O)NS(=O)(=O)[C@H](C)c3ccccc3)n2-c2c(OC)cccc2OC)n1 (single isomer, unassigned) [Example 33]
< 1	CCOc1cccc(-c2nnc(C(=O)NS(=O)(=O)[C@@H]3CCc4ccccc4C3)n2-c2c(OC)cccc2OC)n1 (single isomer, unassigned) [Example 48]

More lines, now with the values behind:

SMILES	EC50 [nM]
CCOc1cccc(-c2nnc(C(=O)NS(=O)(=O)[C@@H](C)c3ccccc3)n2-c2c(OC)cccc2OC)n1 (single isomer, unassigned) [Example 39]	< 1
CCOc1cccc(-c2nnc(C(=O)NS(=O)(=O)C[C@H](C)c3ccccc3)n2-c2c(OC)cccc2OC)n1 (single isomer, unassigned) [Example 46]	< 1
CCOc1cccc(-c2nnc(C(=O)NS(=O)(=O)C(C)Cc3ccccc3)n2-c2c(OC)cccc2OC)n1 (stereo not drawn) [Example 57, 4-(2,6-Dimethoxyphenyl)-5-(6-ethoxypyridin-2-yl)-N-((1-phenylpropan-2-yl)sulfonyl)-4H-1,2,4-triazole-3-carboxamide]	< 1
COc1nc(-c2nnc(C(=O)NS(=O)(=O)Cc3ccccc3)n2-c2c(OC)cccc2OC)cs1 [Example 6, N-(benzylsulfonyl)-4-(2,6-dimethoxyphenyl)-5-(2-methoxythiazol-4-yl)-4H-1,2,4-triazole-3-carboxamide]	1 to 100
COc1cccc(-c2nnc(C(=O)NS(=O)(=O)Cc3cnccn3)n2-c2c(OC)cccc2OC)n1 [Example 37, 4-(2,6-Dimethoxyphenyl)-5-(6-methoxypyridin-2-yl)-N-((pyrazin-2-ylmethyl)sulfonyl)-4H-1,2,4-triazole-3-carboxamide]	1 to 100
COc1cccc(OC)c1-n1c(C(=O)NS(=O)(=O)Cc2ncccn2)nnc1-c1cccc(OC(F)F)n1 [Example 22, 5-(6-(Difluoromethoxy)pyridin-2-yl)-4-(2,6-dimethoxyphenyl)-N-((pyrimidin-2-ylmethyl)sulfonyl)-4H-1,2,4-triazole-3-carboxamide]	1 to 100
COc1cccc(-c2nnc(C(=O)NS(=O)(=O)Cc3ccc(F)cc3)n2-c2c(OC)cccc2OC)n1 [Example 31, 4-(2,6-Dimethoxyphenyl)-N-((4-fluorobenzyl)sulfonyl)-5-(6-methoxypyridin-2-yl)-4H-1,2,4-triazole-3-carboxamide]	< 1
CCOc1cccc(-c2nnc(C(=O)NS(=O)(=O)Cc3ccccc3F)n2-c2c(OC)cccc2OC)n1 [Example 53, 4-(2,6-Dimethoxyphenyl)-5-(6-ethoxypyridin-2-yl)-N-((2-fluorobenzyl)sulfonyl)-4H-1,2,4-triazole-3-carboxamide]	< 1
